Experimental data from patent US11236068B2, “Fused ring compounds” (Genentech, Inc., priority 2018, dated 2022).

Columns and labels:
K-Ras G12C [1] = biological target: T1, K-Ras G12C (Homo sapiens (Human), UniProt P01116, G12C); test: Western blot assay for in cell alkylation of K-Ras G12C (HCC1171 cells); type: cell-based; conditions: 18 hours at 37° C., 7 point dose response
Experimental: HCC1171 cells were maintained in RPMI1640 supplemented with 10% FBS. Cells were plated in a 96-well plate at 20,000 cells/well and the following day compounds were added to the cells. After 18 hours at 37° C., cells were lysed in RIPA buffer (Sigma RO278) with 0.5% SDS and protease/phosphatase inhibitor cocktail. After through mixing to enable complete lysis, the lysates were cleared by centrifugation before 20 µl was transferred from each well and combined with loading buffer and reducing agent. After heating for 10 minutes at 95° C., […] of each sample was loaded onto a 4-20% Tris-Glycine gel and electrophoresed at 110V for 165 minutes in SDS-PAGE running buffer. Gels were transferred to a nitrocellulose membrane, blocked for 1 hour and stained overnight at 4° C. with primary antibody against K-Ras (polyclonal Proteintech 12063-1-AP). The membrane was then washed thoroughly and counterstained with anti-rabbit IRDye 800CW (LI-COR 926-32211) for one hour at room temperature. After final washes, the membrane was imaged on a LI-COR Odyssey CLx at medium resolution. […] To quantify this affect, the LICOR software was used to draw a rectangle over alkylated and unalkylated bands for each well and measured the total fluorescent intensity (FI) in each of these bands. The following formula was then used to calculate % alkylation: FI(alkylated)/(FI(alkylated)+FI(unalkylated))*100 for each well.
A 7 point dose response curve was used to determine the IC50 for each compound. Cell alkylation data are presented below in Table 3.
Target sequence in this assay (P01116 other isoform, or with tags, fused parts or gaps G12C): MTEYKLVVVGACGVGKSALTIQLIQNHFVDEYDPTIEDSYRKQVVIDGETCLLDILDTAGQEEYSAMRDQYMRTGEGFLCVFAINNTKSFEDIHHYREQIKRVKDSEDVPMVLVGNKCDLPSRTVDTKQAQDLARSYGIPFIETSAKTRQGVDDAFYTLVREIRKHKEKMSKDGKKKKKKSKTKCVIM

[2] = Whole blood stability assay; type: in vitro ADME; conditions: fresh whole blood, drug final concentration 1 μM, 37° C., 180 minutes
Experimental: Whole Blood Stability Assay
A whole blood stability assay was performed using fresh blood with a drug final concentration of 1 μM. The drug-blood mixtures were incubated at 37° C. for 180 minutes.

K-Ras G12C [3] = biological target: T1, K-Ras G12C; test: K-Ras G12C, SOS1, Raf RBD HTRF assay for inhibition of GTP exchange; type: biochemical; conditions: 18 hours incubation with K-Ras G12C at room temperature, SOS1-mediated GTP exchange
Experimental: K-Ras G12C, SOS1, Raf RBD Homogeneous Time Resolved Fluorescence (HTRF) Assay for Inhibition of GTP Exchange
After 18 hours at room temperature, the SOS1 GTP exchange factor (1.67 nM during exchange, 1.25 nM final) was added to initiate nucleotide exchange to GTP (200 μM during exchange, 150 µM final). The level of GTP exchange was assessed by addition of a Ras binding domain derived from C-Raf and the HTRF detection antibodies Tb-anti-FLAG and D2-anti-his (Cis-Bio) at 50 nM, 1 nM and 12.5 nM, respectively. After 2 hours, the ratio of 665 nm to 615 nm emission with 320 nm excitation was measured on an Envision plate reader (Perkin Elmer).
The final reaction volume was 20l in a ProxiPlate-384F Plus (Perkin Elmer), in buffer containing 20 mM HEPES, 150 mM NaCl, 1 mM MgCl2, 0.1% BSA, 0.03% Tween-20 and 1 mM DTT. […] HTRF data are presented below in Table 3.
Target sequence in this assay (P01116 other isoform, or with tags, fused parts or gaps G12C): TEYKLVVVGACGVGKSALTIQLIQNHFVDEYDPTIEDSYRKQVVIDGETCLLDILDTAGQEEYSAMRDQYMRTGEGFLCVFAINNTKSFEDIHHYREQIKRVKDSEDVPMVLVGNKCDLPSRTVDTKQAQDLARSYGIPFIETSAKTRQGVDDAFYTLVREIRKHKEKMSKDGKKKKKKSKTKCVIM

| Structure (SMILES) | EC50 (K-Ras G12C [1]) [nM] | half-life at 1 μM [2] [h] | IC50 (K-Ras G12C [3]) [nM] |
| --- | --- | --- | --- |
| C=CC(=O)N1CCN(c2nc(OC[C@@H]3CCCN3C)nc3cc(-c4nc(N)cc(C)c4C(F)(F)F)c(Cl)cc23)[C@@H](C)C1 [Example 61, 1-((S)-4-(7-(6-amino-4-methyl-3-(trifluoromethyl)pyridin-2-yl)-6-chloro-2-(((S)-1-methylpyrrolidin-2-yl)methoxy)quinazolin-4-yl)-3-methylpiperazin-1-yl)prop-2-en-1-one] | 2 | 2.67 |  |
| Cc1cc(N)nc(-c2cc3nc(OC[C@@H]4CCCN4C)nc(N4CCN(C(=O)/C=C/C(F)F)C[C@@H]4C)c3cc2Cl)c1C(F)(F)F [Example 65, (E)-1-((S)-4-(7-(6-amino-4-methyl-3-(trifluoromethyl)pyridin-2-yl)-6-chloro-2-(((S)-1-methylpyrrolidin-2-yl)methoxy)quinazolin-4-yl)-3-methylpiperazin-1-yl)-4,4-difluorobut-2-en-1-one] | 7.6 | 0.617 |  |
| C=CC(=O)N1CCN(c2ncnc3c(F)c(-c4nc(N)cc(C)c4C(F)(F)F)c(Cl)cc23)[C@@H](C)C1 [Example 19, 1-((3S)-4-(7-(6-amino-4-methyl-3-(trifluoromethyl)pyridin-2-yl)-6-chloro-8-fluoroquinazolin-4-yl)-3-methylpiperazin-1-yl)prop-2-en-1-one] |  | 2.67 |  |
| C=CC(=O)N1CCN(c2nc(OC[C@@H]3C[C@@H](OCC)CN3C)nc3cc(-c4nc(N)ccc4C(F)(F)F)c(Cl)cc23)CC1 [Example 71, 1-(4-(7-(6-amino-3-(trifluoromethyl)pyridin-2-yl)-6-chloro-2-(((2S,4R)-4-ethoxy-1-methylpyrrolidin-2-yl)methoxy)quinazolin-4-yl)piperazin-1-yl)prop-2-en-1-one] | 18 | 1.52 |  |
| C=CC(=O)N1CCN(c2nc(OC[C@@H]3C[C@@H](F)CN3C)nc3c(F)c(-c4nc(N)cc(C)c4C(F)(F)F)c(Cl)cc23)[C@@H](C)C1 [Example 69, 1-[(3S)-4-[7-[6-amino-4-methyl-3-(trifluoromethyl)-2-pyridyl]-6-chloro-8-fluoro-2-[[(2S,4R)-4-fluoro-1-methyl-pyrrolidin-2-yl]methoxy]quinazolin-4-yl]-3-methyl-piperazin-1-yl]prop-2-en-1-one] | 1 | > 9 |  |
| C=CC(=O)N1CCN(c2ncnc3cc(-c4nc(N)cc(C)c4C(F)(F)F)c(Cl)cc23)CC1 [Example 44, 1-(4-[7-[6-amino-4-methyl-3-(trifluoromethyl)pyridin-2-yl]-6-chloroquinazolin-4-yl]piperazin-1-yl)prop-2-en-1-one] | 62 |  |  |
| C=CC(=O)N1CCN(c2nc(OC[C@@H]3CCCN3C)nc3cc(-c4nc(N)ccc4C(F)(F)F)c(Cl)cc23)CC1 [Example 70, (S)-1-(4-(7-(6-amino-3-(trifluoromethyl)pyridin-2-yl)-6-chloro-2-((1-methylpyrrolidin-2-yl)methoxy)quinazolin-4-yl)piperazin-1-yl)prop-2-en-1-one] | 19 | 1.02 |  |
| C=CC(=O)N1CCN(c2ncnc3cc(-c4nc(N)cc5cccc(F)c45)c(Cl)cc23)CC1 [Example 48, 1-[4-[7-(3-amino-8-fluoroisoquinoline-1-yl)-6-chloroquinazolin-4-yl]piperazin-1-yl]prop-2-en-1-one] | 140 |  | 32 |
| C=CC(=O)N1CCN(c2ncnc3cc(-c4nc(N)ccc4C(F)(F)F)c(N4CCC4)cc23)CC1 [Example 20, 1-[4-[7-[6-amino-3-(trifluoromethyl)-2-pyridyl]-6-(azetidin-1-yl)quinazolin-4-yl]piperazin-1-yl]prop-2-en-1-one] | 2300 |  |  |
| C=CC(=O)N1CCN(c2nc(OC[C@@H]3C[C@@H](OC(F)F)CN3C)nc3cc(-c4nc(N)ccc4C(F)(F)F)c(Cl)cc23)CC1 [Example 92, 1-[4-[7-[6-amino-3-(trifluoromethyl)-2-pyridyl]-6-chloro-2-[[(2S,4R)-4-(difluoromethoxy)-1-methyl-pyrrolidin-2-yl]methoxy]quinazolin-4-yl]piperazin-1-yl]prop-2-en-1-one] | 18 | 3 |  |
| C=CC(=O)N1CCN(c2nc(OC[C@@H]3[C@@H]4C[C@@H]4CN3C)nc3cc(-c4nc(N)ccc4C(F)(F)F)c(Cl)cc23)CC1 [Example 78b, 1-(4-(7-(6-amino-3-(trifluoromethyl)pyridin-2-yl)-6-chloro-2-(((1R,2S,5S)-3-methyl-3-azabicyclo[3.1.0]hexan-2-yl)methoxy)quinazolin-4-yl)piperazin-1-yl)prop-2-en-1-one] | 40 |  |  |
| C=CC(=O)N1CCN(c2nc(OC[C@@H]3C[C@@H](F)[C@H](C)N3C)nc3cc(-c4nc(N)ccc4C(F)(F)F)c(Cl)cc23)CC1 [Example 90, 1-[4-[7-[6-amino-3-(trifluoromethyl)-2-pyridyl]-6-chloro-2-[[(2S,4R,5S)-4-fluoro-1,5-dimethyl-pyrrolidin-2-yl]methoxy]quinazolin-4-yl]piperazin-1-yl]prop-2-en-1-one] | 55 |  |  |
| C=CC(=O)N1CCN(c2ncnc3cc(-c4nc(N)cc5c(Cl)cccc45)c(Cl)cc23)CC1 [Example 5, 1-[4-[7-(3-amino-5-chloro-1-isoquinolyl)-6-chloro-quinazolin-4-yl]piperazin-1-yl]prop-2-en-1-one] | 2800 |  |  |
| C=CC(=O)N1CCN(c2ncnc3cc(-c4nc(N)ccc4CC(F)(F)F)c(Cl)cc23)CC1 [Example 51, 1-[4-[7-[6-amino-3-(2,2,2-trifluoroethyl)-2-pyridyl]-6-chloro-quinazolin-4-yl]piperazin-1-yl]prop-2-en-1-one] | 2800 |  |  |
| C=CC(=O)N1CCN(c2ncnc3cc(-c4nc(N)ccc4C(F)(F)F)c(S(C)(=O)=O)cc23)CC1 [Example 28, 1-[4-[7-[6-amino-3-(trifluoromethyl)-2-pyridyl]-6-methylsulfonyl-quinazolin-4-yl]piperazin-1-yl]prop-2-en-1-one] | 7800 |  | 540 |
| C=CC(=O)N1CCN(c2ncnc3cc(-c4nc(NCC#N)cc5ccccc45)c(Cl)cc23)CC1 [Example 39, 2-[(1-[6-chloro-4-[4-(prop-2-enoyl)piperazin-1-yl]quinazolin-7-yl]isoquinolin-3-yl)amino]acetonitrile] | 10000 |  |  |
| C=CC(=O)N1CCN(c2nc(C(F)(F)F)nc3cc(-c4nc(N)cc(C)c4C(F)(F)F)c(Cl)cc23)CC1 [Example 30, 1-(4-[7-[6-amino-4-methyl-3-(trifluoromethyl)pyridin-2-yl]-6-chloro-2-(trifluoromethyl)quinazolin-4-yl]piperazin-1-yl)prop-2-en-1-one] | 7800 |  |  |
| C=CC(=O)N1CCN(c2ncnc3cc(-c4nc(N)ccc4C(F)(F)F)c(C(C)(F)F)cc23)CC1 [Example 21, 1-(4-(7-(6-amino-3-(trifluoromethyl)pyridin-2-yl)-6-(1,1-difluoroethyl)quinazolin-4-yl)piperazin-1-yl)prop-2-en-1-one] | 2800 |  |  |
